One substance from publication PMC7275090, “Mode of action of teixobactins in cellular membranes” (Nature Communications, 2020) can be followed below.

A short description of test [1]: ssNMR 15N T1rho relaxation (dynamics of bound teixobactin), Lys-Lipid I. As to conditions: bound to Lys-Lipid I in DOPC (Lys-LI PC), 950 MHz, 60 kHz MAS. Here is the method: Relaxation studies: ^1H-detected ^15N T1rho relaxation experiments were carried out at 950 and 700 MHz magnetic field, respectively, using 60 kHz MAS[51]. The ^15N transverse magnetization decay was probed with a ^15N spinlock field of 17.5 kHz. For the bulk, we measured the intensity of the most intense signal at ~8.80 ^1H ppm. T1rho trajectories were fit to single exponentials.
Lipid I or II-doped multi-laminar vesicle preparations: DOPC or DOPG lipids were mixed with Lipid I or II in 1:1 MeOH:CHCl3 at the final Lipid I or II molar ratio (0–4 mol%/mol). The mixtures were dried and the lipid films were hydrated by vortexing with 2 mL of a teixobactin solution in 40 mM phosphate, 25 mM NaCl, pH 7.0.
SSNMR samples: MLVs were collected by centrifugation (20,000×g) and loaded into ssNMR rotors. For 3.2 mm rotors, we used 800 nmol of antibiotic with unlabelled Lipid II or I, while we used 400 nmol with labelled Lipid II. For 1.3 mm rotors, samples contained 200 nmol of antibiotic for unlabelled Lipid II or I, while we used 100 nmol for labelled Lipid II. For all ssNMR samples, we used 4 mol%/mol Lipid II or I in the MLVs.

Test [2] can be described thus: Pyrene excimer fluorescence of pyrene-labelled Lipid II in DOPC LUVs (oligomerisation). As to conditions: 0.5 mol% pyrene-Lipid II, pH 8.0, 20 °C. As to the method: The oligomerisation of fluorescent pyrene-labelled Lipid II was observed upon binding of [R4L10]-teixobactin. DOPC LUVs containing 0.5 (mol%) of pyrene-labelled Lipid II in buffer (10 mM Tris–Cl, 100 mM NaCl, pH 8.0) were prepared as described above. All fluorescence experiments were performed with a Cary Eclipse (FL0904M005) fluorometer. All samples (1.0 mL) were continuously stirred in a 10 × 4-mm quartz cuvette and kept at 20 °C. [R4L10]-teixobactin was titrated to the LUVs. Pyrene fluorescence was followed with spectral recordings between 360 and 550 nm (λex 350 nm, bandwidth 5 nm). The emission at 380 and 495 nm was recorded and averaged over 50 s, to obtain the values for the monomer and excimer intensity, respectively, to determine the excimer over monomer ratio for all conditions. […]
398, and 417 nm. Moreover, pyrene can display a characteristic fluorescence peak at longer wavelengths (490 nm), which occurs only when two pyrene rings reside within 10 Å of each other and form an excited state dimer, which known as an excimer.2 Source data are provided as a Source Data file. a) Fluorescence spectra of pyrene-labelled Lipid II symmetrically in large unilamellar vesicles (LUVs) at increasing concentrations of [R4L10]-teixobactin. […]
c) Quantification of the excimer over monomer ratio as a function of the pyrene-labelled Lipid II concentration. […]

Test [3] is described as follows: 2D NH and DNP ssNMR of teixobactin-Lipid II complex in native cellular membranes. It is filed as binding, Micrococcus flavus DSM 1790. Here is the method: 1D, 2D, and 3D ^1H-detected experiments were performed at 60 kHz MAS frequency using magnetic fields of 16.4, 18.8, and 22.2 T (700, 800, and 950 MHz ^1H-frequency) at temperatures of 305 K. All ^1H-detected experiments were dipolar-based. PISSARRO low-power decoupling[47] was used during detection periods. 2D ^13C^13C spin diffusion experiments were performed with PARISxy[48] recoupling at 950 MHz and 15.5, 17, or 18 kHz MAS frequency at 270 K temperature using mixing times of 25–1000 ms. SPINAL64[49] was used in detection periods. The 2D scalar ^13C^13C TOBSY[50] experiment was acquired at 950 MHz with 8 kHz MAS at 295 K temperature with 6 ms ^13C–^13C magnetization transfer time. Chemical shift assignments were performed using standard ^1H-detected 3D CANH and CONH experiments[36],[51] in combination with 2D ^13C^13C PARISxy[48] experiments with different magnetization transfer times (see Supplementary Tables 1 and 2). DNP-enhanced 2D ^13C^13C spin diffusion (20 ms mixing time) ssNMR experiments[52] were carried out using a 263 GHz microwave frequency, 400 MHz ^1H frequency setup (Bruker Biospin) at 100 K temperature and 8.5 kHz MAS.
Native membrane vesicle preparations were obtained from Micrococcus flavus DSM 1790[13],[16]. The amount of antibiotic was ~7.5 and 30 nmol for the 1.3 and 3.2 mm rotors, respectively. […]

Test [4] in a line: Fluorescence microscopy of GUVs doped with NBD-labelled Lipid II (Lipid II clustering). As to conditions: 1 μM peptide, 4 h.
Procedure: GUVs were prepared using the electroformation method. The GUV cell is a self-assembled system which consists of a 5 mm-thick Teflon plate which is aligned with two titanium electrodes in a closed Teflon chamber. 1.5 μL of 0.5 mM DOPC doped with NBD-labelled Lipid II (0.1 mol%) were brushed on the electrodes. Next, the chamber was filled with 350 μL 0.1 M sucrose solution; the electrodes dipped in and then connected to a power supply which generated a sine wave of voltage 2.5 V at a frequency of 10 Hz for 90 min. Each microscopy slide (μ-slide 8 well, Ibidi) was covered with 350 μL BSA solution (1 mg/mL). To detach the GUVs from the electrodes the power supply was changed to square wave of voltage 2 V at a frequency of 2 Hz for 15 min. The slides were immersed in 300 μL 0.1 mM glucose solution to which 80 μL of GUVs were added. These were incubated for 4 h with 1 μM [R4L10]-teixobactin and observed by confocal microscopy. Anionic GUVs were prepared using a homemade electroformation setup with ITO coverslips (18 × 18 mm, 15–30 Ω, SPI supplies). On both slips, 3 μL of a chloroform–methanol (1:1, vol/vol) solution containing 1 mM of a 3:1 mixture of DOPC:DOPG (mol/mol) and 0.1 mol% NBD-labelled Lipid II was deposited and dried in a vacuum desiccator. With these slips, the electroformation chamber was assembled and filled with 0.1 M sucrose solution. The GUV cell was connected to the power supply and an alternating current applied (1 V, 10 Hz). GUV formation was carried out overnight.
Microscopy: GUVs were imaged using Zeiss LSM 880 with ×63/1.2NA glycerol objective lens. The NBD label appeared green upon excitation by the 488 nm laser. The emission range for detection was 530–545 nm (λem peak = 539 nm). The brightfield images were used for detection and location of the GUVs without a fluorescent signal and also as a control to observe their shape.

Bridge positions count the residues as written; N and C are the ends. Square brackets hold non-standard residues; d marks the D form. Ends that are not written are not given here. d(aIle) = CC[C@H](C)[C@@H](N)C(=O)O; dNMeF = CN[C@H](Cc1ccccc1)C(=O)O

“D-Arg4-Leu10-teixobactin ([dNMeF]IS[dR][d(aIle)]IS[dT]ALI; ester 8-C; also: 13C,15N labels at Ile2, Ser3, Ile6, Ser7 and one Ala (residue not fully stated)) [[R4L10]-teixobactin]”: in test [1], the “Bulk 15N R1rho” value amounted to 21.70 s⁻¹ and the “Bulk 15N T1rho” value stood at 46.09 ms. The “speed of Lipid II oligomerization after addition” value in test [2] was “virtually immediately”. Moreover, the “oligomerization and complex structure in natural membranes” value in test [3] (DNP-ssNMR 2D 13C13C, M. flavus membranes vs DOPC) was “conserved in natural membranes”. For the same substance, the “cellular 2D NH spectrum vs anionic membranes” value in test [3] (M. flavus membranes, 7.5 nmol of drug) is “strongly resembled the one in anionic membranes”. Besides, the “Lipid II segregation into clusters on GUVs” value in test [4] (DOPC GUVs, 0.1 mol% NBD-Lipid II) was “Lipid II segregated into μm-sized clusters”. In test [4] (DOPC GUVs, brightfield images, cluster sites show slight membrane deformations), the “vesicle integrity and morphology after incubation” value is on record as “morphology is maintained”. Moreover, the “Clustering of Lipid II in anionic membranes” value in test [4] (anionic GUVs 1:3 DOPG:DOPC (mol/mol), 0.1 mol% NBD-Lipid II) is listed as “clearly visible”.
